Results published in patent US12552757B2, “NRF2-activating compound” (SENJU PHARMACEUTICAL CO., LTD., priority 2019, dated 2026).

Key:
[1] = target: T1, binding between NRF2 and KEAP1 (Homo sapiens, UniProt Q14145); assay: Measurement 1 of Nrf2 activating action (binding assay): BRET assay of inhibition of the binding between NRF2 and KEAP1; settings: 50% binding inhibitory concentration, NanoLuc-NRF2 / KEAP1-HaloTag cell lysates
T1 construct: expressed in transfected cells; host or cells: HCE-T cells; each protein was expressed separately, and the two cell lysates were mixed in the well
T1 sequence (Q14145 whole entry): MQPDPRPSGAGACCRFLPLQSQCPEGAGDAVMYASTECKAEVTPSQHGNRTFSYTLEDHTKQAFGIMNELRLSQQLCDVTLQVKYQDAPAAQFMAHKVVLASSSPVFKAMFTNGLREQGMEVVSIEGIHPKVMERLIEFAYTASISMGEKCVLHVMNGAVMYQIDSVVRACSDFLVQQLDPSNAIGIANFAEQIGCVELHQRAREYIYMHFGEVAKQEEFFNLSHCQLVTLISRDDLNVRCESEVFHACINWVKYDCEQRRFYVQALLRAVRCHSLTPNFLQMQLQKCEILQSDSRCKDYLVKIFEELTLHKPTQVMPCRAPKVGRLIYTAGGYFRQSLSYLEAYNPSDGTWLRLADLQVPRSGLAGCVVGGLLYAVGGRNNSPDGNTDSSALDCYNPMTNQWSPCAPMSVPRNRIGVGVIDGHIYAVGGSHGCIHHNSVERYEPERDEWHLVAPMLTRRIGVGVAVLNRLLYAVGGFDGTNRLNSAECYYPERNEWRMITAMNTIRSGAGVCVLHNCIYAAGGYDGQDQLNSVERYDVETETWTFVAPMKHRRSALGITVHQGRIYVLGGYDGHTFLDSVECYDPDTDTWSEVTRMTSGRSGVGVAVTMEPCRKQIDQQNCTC
Experimental: Compounds 1 to 53 produced in the Examples were used as test substances.
The inhibitory activity of each compound on the binding between NRF2 and KEAP1 was measured by bioluminescence resonance energy transfer (BRET) assay. A plasmid having human NRF2 (Original Clone ID: ha01449s1) sequence fused with NanoLuc (19 kDa, Promega) at the N-terminal was transduced into HCE-T cells using FuGENE HD (Promega). 48 hours after transduction, the cell lysate was collected and used as an NRF2-expressing cell lysate. A plasmid having human KEAP1 (Original Clone ID: cs00328) sequence fused with HaloTag (33 kDa, Promega) at the C-terminal was transduced into HCE-T cells using FuGENE HD (Promega). After 24 hours, HaloTag Nano BRET 618 Ligand (Promega) was added to the medium. The cell lysate cultured for 24 hours after the addition was used as a KEAP1-expressing cell lysate.
The NRF2-expressing cell lysate and the KEAP1-expressing cell lysate were adjusted so that the luminescence and fluorescence intensities per well were constant. Tables 1 and 2 show the formulation of each reaction solution.
Each test substance at a concentration 100 times higher than the test concentration was dissolved in dimethylsulfoxide for adjustment. 49 μL of KEAP1 solution was added to a 96-well polystyrene microplate (FALCON) to which 1 μL of each test substance solution was added, followed by incubation for 15 minutes. Then, 50 μL of NRF2 solution was added to the above solution, followed by incubation for 1 hour. To measure the binding between NRF2 and KEAP1, NanoBRET Nano-Glo Substrate (Promega) diluted with Opti-Mem (Thermo Fisher Scientific) was added, followed by shaking for 30 seconds. Then, luminescence and fluorescence were measured using the GloMax Discover System (Promega). A 495-nm short pass filter and a 600-nm long pass filter were respectively used to measure donor and acceptor emission values. A value obtained by dividing the acceptor emission value by the donor emission value was regarded as BRET value. A BRET value when the compound was not added, and a BRET value when the KEAP1 solution was not added were respectively used as binding rates of 100% and 0%, and the binding rate when the compound was added was calculated. Further, using this binding rate, the 50% binding inhibitory activity concentration (IC50) was calculated from the following formula: IC50(M)=10^(LOG(A/B)×(50−C)/(D−C)+LOG(B)) • A: higher concentration out of 2 close concentrations across the inhibition rate of 50% • B: lower concentration out of 2 close concentrations across the inhibition rate of 50% • C: inhibition rate at B • D: inhibition rate at A

[2] = Measurement of metabolic stability in human liver microsomes; type: in vitro ADME; settings: residual ratio of test compound after 30 minutes at 37° C. with human liver microsome, LC/MS/MS
Experimental: 1 mmol/L DMSO solutions of the compounds produced in the Examples were prepared. Each of the 1 mmol/L DMSO solutions was diluted with acetonitrile to 10 μmol/L, and then diluted with a 6.5 mmol/L Q-NADPH solution to 200 nmol/L. 50 μL of each solution was added to the reaction group and the non-reaction group. 50 μL of a 0.2 mg protein/mL human liver microsome (Mixed Gender, Pool of 50 livers; XenoTech, LLC) solution was added to the reaction group, followed by incubation at 37° C. for 30 minutes with shaking. After 400 μL of methanol was added to the non-reaction group, 50 μL of a 0.2 mg protein/mL human liver microsome solution was added to adjust the formulation. After incubation in the reaction group, 400 μL of methanol was added to stop the reaction. The samples of the reaction group and non-reaction group were allowed to stand at −20° C. for about 30 minutes, followed by centrifugation at 4° C. at 3000 rpm for about 10 minutes. The supernatant was analyzed using LC/MS/MS, and the residual ratio of the test compound was calculated from the peak area value of the test compound using the following formula. The measurement was carried out using the following devices: HPLC system: LC-20A-Series High Performance Liquid Chromatograph (Shimadzu Corporation) and mass spectrometer: API 4000 (AB Sciex Pte. Ltd.), or using equivalent devices. Residual ratio (%)=(peak area value of test compound in reaction group/peak area value of test compound in non-reaction group)×100 Results

Structure (SMILES)	IC50 [1] [nM]	Metabolic stability* [2] [%]
CC[C@@H]1CN(Cc2cc(C(c3ccc(C(C)=O)o3)C(C)C(=O)O)ccc2C)S(=O)(=O)c2ccccc2O1 (stereo partly drawn) [Compound 24, 3-(5-acetylfuran-2-yl)-3-(3-{[(R)-4-ethyl-1,1-dioxide-3,4-dihydro-2H-benzo[b][1,4,5]oxathiazepin-2-yl]methyl}-4-methylphenyl)-2-methylpropanoic acid]	0.83	72
CC[C@@H]1CN(Cc2cc(C(CC(=O)O)c3ccc(C(C)=O)o3)ccc2C)S(=O)(=O)c2ccccc2O1 (stereo partly drawn) [Compound 25, 3-(5-acetylfuran-2-yl)-3-(3-{[(R)-4-ethyl-1,1-dioxide-3,4-dihydro-2H-benzo[b][1,4,5]oxathiazepin-2-yl]methyl}-4-methylphenyl)propanoic acid]	3.8	72
CC[C@@H]1CN(Cc2cc(C(CC(=O)O)c3ccc(C(=O)NC)o3)ccc2C)S(=O)(=O)c2ccccc2O1 (stereo partly drawn) [Compound 26, 3-(3-{[(R)-4-ethyl-1,1-dioxide-3,4-dihydro-2H-benzo[b][1,4,5]oxathiazepin-2-yl]methyl}-4-methylphenyl)-3-[5-(methylcarbamoyl)furan-2-yl]propanoic acid]	17	93
CC[C@@H]1CN(Cc2cc(C(CC(=O)O)c3ccc(C(=O)N(C)C)o3)ccc2C)S(=O)(=O)c2ccccc2O1 (stereo partly drawn) [Compound 27, 3-[5-(dimethylcarbamoyl)furan-2-yl]-3-(3-{[(R)-4-ethyl-1,1-dioxide-3,4-dihydro-2H-benzo[b][1,4,5]oxathiazepin-2-yl]methyl}-4-methylphenyl)propanoic acid]	20	85
CC[C@@H]1CN(Cc2cc(C(CC(=O)O)c3ccc(C(=O)N4CCCC4)o3)ccc2C)S(=O)(=O)c2ccccc2O1 (stereo partly drawn) [Compound 28, 3-(3-{[(R)-4-ethyl-1,1-dioxide-3,4-dihydro-2H-benzo[b][1,4,5]oxathiazepin-2-yl]methyl}-4-methylphenyl)-3-[5-(pyrrolidine-1-carbonyl)furan-2-yl]propanoic acid]	19	67
CC[C@@H]1CN(Cc2cc(C(CC(=O)O)c3ccc(C(=O)NC(C)C)o3)ccc2C)S(=O)(=O)c2ccccc2O1 (stereo partly drawn) [Compound 29, 3-(3-{[(R)-4-ethyl-1,1-dioxide-3,4-dihydro-2H-benzo[b][1,4,5]oxathiazepin-2-yl]methyl}-4-methylphenyl)-3-[5-(isopropylcarbamoyl)furan-2-yl]propanoic acid]	17	83
CC[C@@H]1CN(Cc2cc(C(CC(=O)O)c3ccc(C(=O)NCCOC)o3)ccc2C)S(=O)(=O)c2ccccc2O1 (stereo partly drawn) [Compound 30, 3-(3-{[(R)-4-ethyl-1,1-dioxide-3,4-dihydro-2H-benzo[b][1,4,5]oxathiazepin-2-yl]methyl}-4-methylphenyl)-3-{5-[(2-methoxyethyl)carbamoyl]furan-2-yl}propanoic acid]	14	81
CC[C@@H]1CN(Cc2cc(C(CC(=O)O)c3cc(C)c(C(=O)NC)o3)ccc2C)S(=O)(=O)c2ccccc2O1 (stereo partly drawn) [Compound 31, 3-(3-{[(R)-4-ethyl-1,1-dioxide-3,4-dihydro-2H-benzo[b][1,4,5]oxathiazepin-2-yl]methyl}-4-methylphenyl)-3-[4-methyl-5-(methylcarbamoyl)furan-2-yl]propanoic acid]	99	77
CC[C@@H]1CN(Cc2cc(C(CC(=O)O)c3ccc(CNC(C)C)o3)ccc2C)S(=O)(=O)c2ccccc2O1 (stereo partly drawn) [Compound 32, 3-(3-{[(R)-4-ethyl-1,1-dioxide-3,4-dihydro-2H-benzo[b][1,4,5]oxathiazepin-2-yl]methyl}-4-methylphenyl)-3-(5-[(isopropylamino)methyl]furan-2-yl)propanoic acid]	205	90
CC[C@@H]1CN(Cc2cc(C(CC(=O)O)c3ccc(C(C)=O)n3C)ccc2C)S(=O)(=O)c2ccccc2O1 (stereo partly drawn) [Compound 33, 3-(5-acetyl-1-methyl-1H-pyrrol-2-yl)-3-(3-{[(R)-4-ethyl-1,1-dioxide-3,4-dihydro-2H-benzo[b][1,4,5]oxathiazepin-2-yl]methyl}-4-methylphenyl)propanoic acid]	0.3	62
CC[C@@H]1CN(Cc2cc(C(CC(=O)O)c3ccc(C(C)=O)n3CC)ccc2C)S(=O)(=O)c2ccccc2O1 (stereo partly drawn) [Compound 34, 3-(5-acetyl-1-ethyl-1H-pyrrol-2-yl)-3-(3-{[(R)-4-ethyl-1,1-dioxide-3,4-dihydro-2H-benzo[b][1,4,5]oxathiazepin-2-yl]methyl}-4-methylphenyl)propanoic acid]	47	54
CC[C@@H]1CN(Cc2cc(C(CC(=O)O)c3c(C)c(C(C)=O)c(C)n3C)ccc2C)S(=O)(=O)c2ccccc2O1 (stereo partly drawn) [Compound 35, 3-(4-acetyl-1,3,5-trimethyl-1H-pyrrol-2-yl)-3-(3-{[(R)-4-ethyl-1,1-dioxide-3,4-dihydro-2H-benzo[b][1,4,5]oxathiazepin-2-yl]methyl}-4-methylphenyl) propanoic acid]	3.9	39
CC[C@@H]1CN(Cc2cc(C(CC(=O)O)c3cc(C#N)n(C)c3)ccc2C)S(=O)(=O)c2ccccc2O1 (stereo partly drawn) [Compound 36, 3-(5-cyano-1-methyl-1H-pyrrol-3-yl)-3-(3-{[(R)-4-ethyl-1,1-dioxide-3,4-dihydro-2H-benzo[b][1,4,5]oxathiazepin-2-yl]methyl}-4-methylphenyl)propanoic acid]	2.5	29
CC[C@@H]1CN(Cc2cc(C(CC(=O)O)c3cc4c(n3C)CCCC4=O)ccc2C)S(=O)(=O)c2ccccc2O1 (stereo partly drawn) [Compound 37, 3-(3-{[(R)-4-ethyl-1,1-dioxide-3,4-dihydro-2H-benzo[b][1,4,5]oxathiazepin-2-yl]methyl}-4-methylphenyl)-3-(1-methyl-4-oxo-4,5,6,7-tetrahydro-1H-indol-2-yl)propanoic acid]	0.16	89
CC[C@@H]1CN(Cc2cc(C(CC(=O)O)c3cc4c(s3)C(=O)NC4)ccc2C)S(=O)(=O)c2ccccc2O1 (stereo partly drawn) [Compound 38, 3-(3-{[(R)-4-ethyl-1,1-dioxide-3,4-dihydro-2H-benzo[b][1,4,5]oxathiazepin-2-yl]methyl}-4-methylphenyl)-3-(6-oxo-5,6-dihydro-4H-thieno[2,3-c]pyrrol-2-yl) propanoic acid]	0.22	61
CC[C@@H]1CN(Cc2cc(C(CC(=O)O)c3cncs3)ccc2C)S(=O)(=O)c2ccccc2O1 (stereo partly drawn) [Compound 39, 3-(3-{[(R)-4-ethyl-1,1-dioxide-3,4-dihydro-2H-benzo[b][1,4,5]oxathiazepin-2-yl]methyl}-4-methylphenyl)-3-(thiazol-5-yl)propanoic acid]	3.8	89
CC[C@@H]1CN(Cc2cc(C(CC(=O)O)c3ncc(C(C)=O)s3)ccc2C)S(=O)(=O)c2ccccc2O1 (stereo partly drawn) [Compound 40, 3-(5-acetylthiazol-2-yl)-3-(3-{[(R)-4-ethyl-1,1-dioxide-3,4-dihydro-2H-benzo[b][1,4,5]oxathiazepin-2-yl]methyl}-4-methylphenyl)propanoic acid]	2.6	69
